In patent US20150297782A1, “NITRIC OXIDE-RELEASING DRESSINGS” (priority 2008, published 2015):

Columns and labels:
[1] = Effect of varying oxygen concentrations on efficacy of 1000 ppm NO exposure; assay type: cell-based
Description: Prior art devices for delivering NO to treat wounds have required a closed environment. […] The oxygen may be environmental oxygen or may be delivered via an oxygen generating component within the dressing or apparatus.
The effect of various oxygen concentration levels on the efficacy of 1000 ppm treatment of NO was studied.

bacterial burden = details: "It has been shown", no test described; cited from earlier work
[2] = humans, delivery to an infection site; cited from earlier work

Question: With `[N]=O` [NO, Nitric oxide] as the compound, how does the CFU/mL ([1]; 0% Oxygen, 2 hour) read?
Answer: 100,000 CFU/mL

Question: And the CFU/mL ([1]; 0% Oxygen, 4 hour)?
Answer: 100,000 CFU/mL

Question: What about the CFU/mL ([1]; 14.5% Oxygen, 2 hour) of the same compound?
Answer: 2730 CFU/mL

Question: What about the CFU/mL ([1]; 14.5% Oxygen, 3 hour) of the same compound?
Answer: 78 CFU/mL

Question: What about the CFU/mL ([1]; 14.5% Oxygen, 4 hour) of the same compound?
Answer: 0 CFU/mL

Question: And the CFU/mL ([1]; 21% Oxygen, 1 hour)?
Answer: 100,000 CFU/mL

Question: What about the CFU/mL ([1]; 21% Oxygen, 2 hour) of the same compound?
Answer: 10,000 CFU/mL

Question: What about the CFU/mL ([1]; 21% Oxygen, 3 hour) of the same compound?
Answer: 0 CFU/mL

Question: What about the CFU/mL ([1]; 21% Oxygen, 4 hour) of the same compound?
Answer: 0 CFU/mL

Question: And the “reduction of the bacterial burden” value (bacterial burden)?
Answer: 5-6 log10 cfu/mL

Question: And the side-effects [2]?
Answer: does not have significant side-effects
